In publication PMC3852661, “Structural basis of SUFU–GLI interaction in human Hedgehog signalling regulation” (Acta Crystallographica Section D: Biological Crystallography, 2013):

How the values were obtained:
[1] = system: MBP-SUFU-FL, mutation of Glu376; assay: Microscale thermophoresis, MBP-SUFU-FL mutated at Glu376; format: binding, human; conditions: mutation of Glu376 in MBP-SUFU-FL, data not shown
Method: A 5-FAM-labelled peptide (FAM-GLI1p) comprising residues 115–131 of GLI1 (Supplementary Table S1b) was synthesized by Pepceuticals Ltd. A titration series of each recombinant protein was prepared by serial 1:1 dilutions in MST buffer (50 mM Tris–HCl pH 7.6, 150 mM NaCl, 10 mM MgCl2, 0.05% Tween-20) and mixed in a 1:1 ratio with FAM-GLI1p to give final concentrations of 50 nM FAM-GLI1p with MBP-SUFU constructs in the ranges 14.2–29 070 and 54–110 500 nM. Reactions were aspirated into glass capillaries and the thermophoretic movement of FAM-GLI1p was monitored using a Monolith NT.115 instrument (NanoTemper Technologies; Wienken et al., 2010[▶]), with a laser on for 30 s and off for 5 s and a laser power/voltage of 20% for MBP-SUFU-FL and the MBP-SUFU-FL mutants, 40% for MBP-SUFU-Δ and 80% for MBP-SUFU-SH. Fluorescence was measured before laser heating (F Cold) and after 30 s of laser-on time (F Hot). The normalized fluorescence F Hot/F Cold reflects the concentration ratio of labelled molecules. F Hot/F Cold was plotted directly and multiplied by a factor of […], yielding a relative change in fluorescence per thousand. K d was calculated from three independent thermophoresis measurements using NanoTemper software (NanoTemper Technologies). […]

MBP-SUFU-Δ = molecular target: T1, MBP-SUFU-Δ (Homo sapiens, UniProt Q9UMX1, DEL285-359/L360P/P281R/P282G/R280S/S279P); assay: Thermal stability assay with peptide, MBP-SUFU-Δ; format: binding; conditions: 44 µM peptide, 2.2 µM protein, SYPRO Orange, 50 mM Na HEPES pH 7.0, 50 mM NaCl, 5 mM β-mercaptoethanol; triplicate
T1 construct: subcloning different SUFU32–483 variants into vector pLJMBP4c; His tag (as in MBP-SUFU-FL; purified on HisTrap) (C); made in house; host or cells: Escherichia coli JM109 (DE3)
T1 sequence (Q9UMX1 with tags, fused parts or gaps S279P/R280S/P281R/P282G/DEL285-359/L360P limits assumed, other chains not shown): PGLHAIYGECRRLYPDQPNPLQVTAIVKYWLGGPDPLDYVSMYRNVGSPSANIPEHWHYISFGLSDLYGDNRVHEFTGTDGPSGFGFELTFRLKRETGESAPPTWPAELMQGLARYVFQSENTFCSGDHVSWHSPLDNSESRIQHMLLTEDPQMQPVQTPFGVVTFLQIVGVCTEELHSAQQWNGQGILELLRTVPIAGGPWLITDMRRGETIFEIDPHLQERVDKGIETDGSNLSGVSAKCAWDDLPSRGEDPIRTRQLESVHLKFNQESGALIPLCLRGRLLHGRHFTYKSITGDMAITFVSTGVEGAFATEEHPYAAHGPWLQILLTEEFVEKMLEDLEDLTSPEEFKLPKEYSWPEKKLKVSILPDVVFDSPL
Method: Recombinant MBP-SUFU proteins were diluted to 2.6 μM in 50 mM Na HEPES pH 7.0, 50 mM NaCl, 5 mM β-mercaptoethanol; the peptides GLI1p and GLI1p-SH (Supplementary Table S1b), synthesized by Dr W. Mawby (University of Bristol), were dissolved in the same buffer. Proteins were spun at 14 000g for 20 min at 4°C before adding SYPRO Orange (Molecular Probes) to a final concentration of 6×. Reaction volumes of 25 μl were prepared in 96-well PCR plates with 2.2 μM protein/SYPRO Orange solution and, where applicable, 44 μM peptide. Plates were sealed with optical tape, heated from 20 to 90°C in 12 s 0.2°C steps in an iCycler and fluorescence was detected using an excitation wavelength of 470 nm and an emission wavelength of 570 nm. To determine whether the IDR affects the GLI-binding properties of SUFU, we used a human GLI1-derived peptide (GLI1p; residues 115-131; Supplementary Table S1b) containing the highly conserved SYGH motif important for interaction with SUFU (Dunaeva et al., 2003[▶]) in a thermal stability assay with MBP-SUFU-FL and MBP-SUFU-Δ (Fig. 4 ▶ a). The addition of GLI1p stabilized both proteins: T m for MBP-SUFU-FL was shifted by 4°C and that for MBP-SUFU-Δ was shifted by 3.6°C. […] The GLI1 dose dependency of this effect was confirmed in a separate experiment with increasing GLI1p concentrations (Supplementary Fig. […]).

detectable binding [1]: abolished detectable binding
Tm shift (MBP-SUFU-Δ): 3.6 °C
Substance: GLI1p: human GLI1-derived peptide; residues 115–131, containing the highly conserved SYGH motif (TSPGGSYGHLSIGTMSP)
